In patent US20170008921A1, “C-3 NOVEL TRITERPENONE WITH C-28 REVERSE AMIDE DERIVATIVES AS HIV INHIBITORS” (HETERO RESEARCH FOUNDATION, priority 2015, published 2017):

Key:
[1] = Cyto-toxicity (MTT assay); format: cell-based
[2] = Single dose oral pharmacokinetic study; format: in vivo; conditions: mouse, Mice oral PK @30 mg/kg, plasma, vehicle 10% Solutol+20% PEG; for AUC(0-t): read-out: AUC0-t; for Cmax: read-out: Cmax
Outline: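 Rats or mice dosed orally at 30 mg/kg in 10% Solutol+20% PEG. Acetonitrile precipitation, then LC-MS/MS quantification for PK parameters.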

Row | Compound | viability at 4 days, 0.01 µM [1] | viability at 4 days, 0.1 µM [1] | viability at 4 days, 1 µM [1] | AUC(0-t) [2] | Cmax [2]
1 | Cc1ccc(C(=O)NC2(C(=O)N[C@@]34CC[C@]5(C)[C@H](CC[C@@H]6[C@@]7(C)CC[C@H](OC(=O)[C@H]8C[C@@H](C(=O)O)C8(C)C)C(C)(C)[C@@H]7CC[C@]65C)C3=C(C(C)C)C(=O)C4)CC2)cn1 [Example 38, (1R,3S)-3-((((3aR,5aR,5bR,7aR,9S,11aR,11bR,13aS)-1-isopropyl-5a,5b,8,8,11a-pentamethyl-3a-(1-(6-methylnicotinamido)cyclopropane-1-carbox amido)-2-oxo-3,3a,4,5,5a,5b,6,7,7a,8,9,10,11,11a,11b,12,13,13a-octadecahydro-2H-cyclopenta[a]chrysen-9-yl)oxy)carbonyl)-2,2-dimethylcyclobutane-1-carboxylic acid] | 20% | 9% | 2% | 114 µg·h/mL | 10100 ng/mL
2 | CC(C)C1=C2[C@H]3CC[C@@H]4[C@@]5(C)CC[C@H](OC(=O)[C@H]6C[C@@H](C(=O)O)C6(C)C)C(C)(C)[C@@H]5CC[C@@]4(C)[C@]3(C)CC[C@@]2(NC(=O)C(C)(C)NC(=O)c2ccc(F)cc2)CC1=O [Example 22, (1R,3S)-3-((((3aR,5aR,5bR,7aR,9S,11aR,11bR,13aS)-3a-(2-(4-fluorobenzamido)-2-methylpropanamido)-1-isopropyl-5a,5b,8,8,11a-pentamethyl-2-oxo-3,3a, 4,5,5a,5b,6,7,7a,8,9,10,11,11a,11b,12,13,13a-octadecahydro-2H-cyclopenta[a]chrysen-9-yl)oxy)carbonyl)-2,2-dimethylcyclobutane-1-carboxylic acid] | 21% | 3% | 3% | 490 µg·h/mL | 23600 ng/mL
3 | CC(C)C1=C2[C@H]3CC[C@@H]4[C@@]5(C)CC[C@H](OC(=O)[C@H]6C[C@@H](C(=O)O)C6(C)C)C(C)(C)[C@@H]5CC[C@@]4(C)[C@]3(C)CC[C@@]2(NC(=O)C(C)(C)NC(=O)CN2CCCCC2)CC1=O [Example 10, (1R,3S)-3-((((3aR,5aR,5bR,7aR,9S,11aR,11bR,13aS)-1-isopropyl-5a,5b,8,8,11a-pentamethyl-3a-(2-methyl-2-(2-(piperidin-1-yl)acetamido)propan amido)-2-oxo-3,3a,4,5,5a,5b,6,7,7a,8,9,10,11,11a,11b,12,13,13a-octadecahydro-2H-cyclopenta[a]chrysen-9-yl)oxy)carbonyl)-2,2-dimethylcyclobutane-1-carboxylic acid] | 67% | 1% | 0% | 69.8 µg·h/mL | 9790 ng/mL
4 | Cc1ccc(NC(=O)NC(C)(C)C(=O)N[C@@]23CC[C@]4(C)[C@H](CC[C@@H]5[C@@]6(C)CC[C@H](OC(=O)[C@H]7C[C@@H](C(=O)O)C7(C)C)C(C)(C)[C@@H]6CC[C@]54C)C2=C(C(C)C)C(=O)C3)cn1 [Example 71, (1R,3S)-3-((((3aR,5aR,5bR,7aR,9S,11aR,11bR,13aS)-1-isopropyl-5a,5b,8,811a-pentamethyl-3a-(2-methyl-2-(3-(6-methylpyridin-3-yl)ureido)propanamido)-2-oxo-3,3a,4,5,5a,5b,6,7,7a,8,9,10,11,11a,11b,12,13,13a-octadecahydro-2H-cyclopenta[a]chrysen-9-yl)oxy)carbonyl)-2,2-dimethylcyclobutane-1-carboxylic acid] | 41% | 5% | 3% | 130 µg·h/mL | 19300 ng/mL
5 | Cc1ccc(C(=O)NC2(C(=O)N[C@@]34CC[C@]5(C)[C@H](CC[C@@H]6[C@@]7(C)CC[C@H](OC(=O)[C@H]8C[C@@H](C(=O)O)C8(C)C)C(C)(C)[C@@H]7CC[C@]65C)C3=C(C(C)C)C(=O)C4)CC2)cc1 [Example 40, (1R,3S)-3-((((3aR,5aR,5bR,7aR,9S,11aR,11bR,13aS)-1-isopropyl-5a,5b,8,8,11a-pentamethyl-3a-(1-(4-methylbenzamido)cyclopropane-1-carboxamido)-2-oxo-3,3a,4,5,5a,5b,6,7,7a,8,9,10,11,11a,11b,12,13,13a-octadecahydro-2H-cyclopenta[a]chrysen-9-yl)oxy)carbonyl)-2,2-dimethylcyclobutane-1-carboxylic acid] | 26% | 2% | 1% | 343 µg·h/mL | 20300 ng/mL
6 | Cc1cnc(C(=O)NC(C)(C)C(=O)N[C@@]23CC[C@]4(C)[C@H](CC[C@@H]5[C@@]6(C)CC[C@H](OC(=O)[C@H]7C[C@@H](C(=O)O)C7(C)C)C(C)(C)[C@@H]6CC[C@]54C)C2=C(C(C)C)C(=O)C3)cn1 [Example 7, (1R,3S)-3-((((3aR,5aR,5bR,7aR,9S,11aR,11bR,13aS)-1-isopropyl-5a,5b,8,8,11a-pentamethyl-3a-(2-methyl-2-(5-methylpyrazine-2-carboxamido)propanamido)-2-oxo-3,3a,4,5,5a,5b,6,7,7a,8,9,10,11,11a,11b,12,13,13a-octadecahydro-2H-cyclopenta[a]chrysen-9-yl)oxy)carbonyl)-2,2-dimethylcyclobutane-1-carboxylic acid] | 28% | 9% | 0% | 517 µg·h/mL | 41900 ng/mL
7 | CC(C)C1=C2[C@H]3CC[C@@H]4[C@@]5(C)CC[C@H](OC(=O)[C@H]6C[C@@H](C(=O)O)C6(C)C)C(C)(C)[C@@H]5CC[C@@]4(C)[C@]3(C)CC[C@@]2(NC(=O)C(C)(C)NC(=O)c2ccoc2)CC1=O [Example 24, (1R,3S)-3-((((3aR,5aR,5bR,7aR,9S,11aR,11bR,13aS)-3a-(2-(furan-3-carboxamido)-2-methylpropanamido)-1-isopropyl-5a,5b,8,8,11a-pentamethyl-2-oxo-3,3a,4,5,5a,5b,6,7,7a,8,9,10,11,11a,11b,12,13,13a-octadecahydro-2H-cyclopenta[a]chrysen-9-yl)oxy)carbonyl)-2,2-dimethylcyclobutane-1-carboxylic acid] | 69% | 21% | 6% | 428 µg·h/mL | 29600 ng/mL
8 | CC(C)C1=C2[C@H]3CC[C@@H]4[C@@]5(C)CC[C@H](OC(=O)[C@H]6C[C@@H](C(=O)O)C6(C)C)C(C)(C)[C@@H]5CC[C@@]4(C)[C@]3(C)CC[C@@]2(NC(=O)C(C)(C)NC(=O)c2ccc3[nH]c(-c4cnccn4)nc3c2)CC1=O [Example 15, (1R,3S)-3-((((3aR,5aR,5bR,7aR,9S,11aR,11bR,13aS)-1-isopropyl-5a,5b,8,8,11a-pentamethyl-3a-(2-methyl-2-(2-(pyrazin-2-yl)-1H-benzo[d]imidazole-5-carboxamido)propanamido)-2-oxo-3,3a,4,5,5a,5b,6,7,7a,8,9,10,11,11a,11b,12,13,13a-octadecahydro-2H-cyclopenta[a]chrysen-9-yl)oxy)carbonyl)-2,2-dimethylcyclobutane-1-carboxylic acid] | 44% | 8% | 2% | 141 µg·h/mL | 12800 ng/mL
9 | CC(C)C1=C2[C@H]3CC[C@@H]4[C@@]5(C)CC[C@H](OC(=O)[C@H]6C[C@@H](C(=O)O)C6(C)C)C(C)(C)[C@@H]5CC[C@@]4(C)[C@]3(C)CC[C@@]2(NC(=O)C2(NC(=O)c3ccc(Cl)cc3)CCCCC2)CC1=O [Example 48, (1R,3S)-3-((((3aR,5aR,5bR,7aR,9S,11aR,11bR,13aS)-3a-(1-(4-chlorobenzamido)cyclohexane-1-carboxamido)-1-isopropyl-5a,5b,8,8,11a-pentamethyl-2-oxo-3,3a,4,5,5a,5b,6,7,7a,8,9,10,11,11a,11b,12,13,13a-octadecahydro-2H-cyclopenta[a]chrysen-9-yl)oxy)carbonyl)-2,2-dimethylcyclobutane-1-carboxylic acid] | 44% | 12% | 4% | 477 µg·h/mL | 20300 ng/mL
10 | CC(C)C1=C2[C@H]3CC[C@@H]4[C@@]5(C)CC[C@H](OC(=O)[C@H]6C[C@@H](C(=O)O)C6(C)C)C(C)(C)[C@@H]5CC[C@@]4(C)[C@]3(C)CC[C@@]2(NC(=O)C(C)(C)NC(=O)CN(C)C)CC1=O [Example 59, (1R,3S)-3-((((3aR,5aR,5bR,7aR,9S,11aR,11bR,13aS)-3a-(2-(2-(dimethylamino)acetamido)-2-methylpropanamido)-1-isopropyl-5a,5b,8,8,11a-pentamethyl-2-oxo-3,3a,4,5,5a,5b,6,7,7a,8,9,10,11,11a,11b,12,13,13a-octadecahydro-2H-cyclopenta[a]chrysen-9-yl)oxy)carbonyl)-2,2-dimethylcyclobutane-1-carboxylic acid] | 94% | 15% | 8% | 186 µg·h/mL | 13900 ng/mL
11 | Cc1ccc(C(=O)NC2(C(=O)N[C@@]34CC[C@]5(C)[C@H](CC[C@@H]6[C@@]7(C)CC[C@H](OC(=O)[C@H]8C[C@@H](C(=O)O)C8(C)C)C(C)(C)[C@@H]7CC[C@]65C)C3=C(C(C)C)C(=O)C4)CCC2)cn1 [Example 43, (1R,3S)-3-((((3aR,5aR,5bR,7aR,9S,11aR,11bR,13aS)-1-isopropyl-5a,5b,8,8,11a-pentamethyl-3a-(1-(6-methylnicotinamido)cyclobutane-1-carboxamido)-2-oxo-3,3a,4,5,5a,5b,6,7,7a,8,9,10,11,11a,11b,12,13,13a-octadecahydro-2H-cyclopenta[a]chrysen-9-yl)oxy)carbonyl)-2,2-dimethylcyclobutane-1-carboxylic acid] | 76% | 26% | 3% | 320 µg·h/mL | 31300 ng/mL
